Reference: ChEMBL document CHEMBL5465560, “Selectivity Literature for EUbOPEN Chemogenomic Library” (2024)

Experiments:
[1] = target: Phosphatidylinositol 4-kinase type 2-beta (Homo sapiens) (UniProt Q8TCG2); test: Selectivity interaction (Adapta Assay) EUB0001632a PI4K2B; conditions: at 10 µM
[2] = target: Bromodomain-containing protein 3 (Homo sapiens) (UniProt Q15059); test: Selectivity interaction (Human bromodomain panel (DSF assay)) EUB0000233b BRD3
[3] = target: Muscarinic acetylcholine receptor M1 (Homo sapiens, UniProt P11229); test: Selectivity interaction (Muscarinic M1 receptor assay, human recombinant ) EUB0000877a CHRM1
Sequence of Muscarinic acetylcholine receptor M1 (P11229 whole entry, canonical isoform): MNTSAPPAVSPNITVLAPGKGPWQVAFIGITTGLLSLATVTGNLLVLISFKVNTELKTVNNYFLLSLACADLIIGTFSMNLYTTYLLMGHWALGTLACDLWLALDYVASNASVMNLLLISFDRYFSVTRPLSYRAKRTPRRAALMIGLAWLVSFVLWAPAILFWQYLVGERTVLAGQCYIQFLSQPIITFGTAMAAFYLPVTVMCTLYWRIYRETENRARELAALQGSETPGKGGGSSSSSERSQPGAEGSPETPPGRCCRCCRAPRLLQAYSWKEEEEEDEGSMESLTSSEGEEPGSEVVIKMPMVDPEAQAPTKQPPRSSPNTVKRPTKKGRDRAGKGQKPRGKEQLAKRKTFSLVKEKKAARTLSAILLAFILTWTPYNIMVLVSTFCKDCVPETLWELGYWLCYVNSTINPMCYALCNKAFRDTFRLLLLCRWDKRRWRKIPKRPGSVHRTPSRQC

[4] = target: T1, Phosphatidylinositol 4,5-bisphosphate 3-kinase catalytic subunit delta isoform (Homo sapiens) (UniProt O00329); test: Selectivity interaction (ActivX KiNativ screen (kinase selectivity in THP-1 cell lysates)) EUB0000639a PIK3CD; assay type: subcellular; conditions: lysate
T1 sequence (whole entry): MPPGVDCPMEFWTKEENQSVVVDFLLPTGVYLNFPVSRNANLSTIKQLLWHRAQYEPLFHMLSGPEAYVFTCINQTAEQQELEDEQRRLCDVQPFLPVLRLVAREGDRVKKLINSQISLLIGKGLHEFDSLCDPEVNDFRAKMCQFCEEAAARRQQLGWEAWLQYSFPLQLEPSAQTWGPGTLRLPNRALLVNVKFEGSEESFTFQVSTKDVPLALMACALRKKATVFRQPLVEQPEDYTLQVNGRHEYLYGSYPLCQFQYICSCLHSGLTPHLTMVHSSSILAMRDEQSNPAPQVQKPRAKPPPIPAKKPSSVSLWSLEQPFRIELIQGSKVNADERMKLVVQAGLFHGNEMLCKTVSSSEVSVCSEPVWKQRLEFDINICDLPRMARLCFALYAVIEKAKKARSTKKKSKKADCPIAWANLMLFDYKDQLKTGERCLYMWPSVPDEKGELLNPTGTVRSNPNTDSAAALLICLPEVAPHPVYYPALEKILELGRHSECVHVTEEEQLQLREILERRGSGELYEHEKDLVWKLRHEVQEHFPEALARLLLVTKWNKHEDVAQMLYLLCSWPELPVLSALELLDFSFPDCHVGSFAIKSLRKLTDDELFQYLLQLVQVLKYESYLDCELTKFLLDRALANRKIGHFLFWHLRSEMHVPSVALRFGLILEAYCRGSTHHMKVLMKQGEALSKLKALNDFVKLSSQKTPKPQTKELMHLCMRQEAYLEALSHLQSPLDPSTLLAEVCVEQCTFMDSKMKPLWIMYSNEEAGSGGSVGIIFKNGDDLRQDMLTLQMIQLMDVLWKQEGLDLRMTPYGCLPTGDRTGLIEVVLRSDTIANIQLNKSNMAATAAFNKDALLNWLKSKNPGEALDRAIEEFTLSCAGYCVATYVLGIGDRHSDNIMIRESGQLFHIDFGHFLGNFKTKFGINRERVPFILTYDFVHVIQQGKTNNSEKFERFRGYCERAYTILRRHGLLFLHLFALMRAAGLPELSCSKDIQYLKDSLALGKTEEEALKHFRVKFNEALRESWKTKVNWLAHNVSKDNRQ

[5] = target: T2, Tyrosine-protein kinase receptor TYRO3 (Homo sapiens) (UniProt Q06418); test: Selectivity interaction (ProQinase) EUB0000171b TYRO3
T2 sequence (whole entry): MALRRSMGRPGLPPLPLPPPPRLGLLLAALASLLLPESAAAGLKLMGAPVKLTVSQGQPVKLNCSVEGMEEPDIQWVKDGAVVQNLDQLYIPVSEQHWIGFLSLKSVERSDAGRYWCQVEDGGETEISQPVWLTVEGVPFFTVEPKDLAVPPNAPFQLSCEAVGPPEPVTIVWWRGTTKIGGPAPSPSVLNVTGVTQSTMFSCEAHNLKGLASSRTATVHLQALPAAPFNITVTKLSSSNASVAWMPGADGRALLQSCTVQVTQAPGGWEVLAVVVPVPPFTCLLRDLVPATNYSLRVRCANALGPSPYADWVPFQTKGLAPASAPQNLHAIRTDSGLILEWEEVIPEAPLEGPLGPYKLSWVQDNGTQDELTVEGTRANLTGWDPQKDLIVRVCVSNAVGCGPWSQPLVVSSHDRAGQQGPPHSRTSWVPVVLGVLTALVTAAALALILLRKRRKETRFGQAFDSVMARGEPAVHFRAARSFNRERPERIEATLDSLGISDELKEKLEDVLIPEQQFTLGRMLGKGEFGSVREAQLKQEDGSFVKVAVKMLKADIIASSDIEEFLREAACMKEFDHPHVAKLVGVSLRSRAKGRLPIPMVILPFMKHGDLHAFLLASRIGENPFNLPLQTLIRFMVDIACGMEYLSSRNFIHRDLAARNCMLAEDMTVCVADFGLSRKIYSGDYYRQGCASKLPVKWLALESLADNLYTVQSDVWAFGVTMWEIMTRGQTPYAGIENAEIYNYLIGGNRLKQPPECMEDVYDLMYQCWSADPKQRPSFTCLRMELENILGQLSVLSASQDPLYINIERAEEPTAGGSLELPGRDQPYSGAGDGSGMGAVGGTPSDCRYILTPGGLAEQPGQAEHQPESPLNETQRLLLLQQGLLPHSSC

[6] = target: Death-associated protein kinase 1 (Homo sapiens, UniProt P53355); test: Selectivity interaction (KinomeScan (DiscoverX)) EUB0000595a DAPK1; conditions: at 10 µM
Sequence of Death-associated protein kinase 1 (P53355 whole entry, looked up): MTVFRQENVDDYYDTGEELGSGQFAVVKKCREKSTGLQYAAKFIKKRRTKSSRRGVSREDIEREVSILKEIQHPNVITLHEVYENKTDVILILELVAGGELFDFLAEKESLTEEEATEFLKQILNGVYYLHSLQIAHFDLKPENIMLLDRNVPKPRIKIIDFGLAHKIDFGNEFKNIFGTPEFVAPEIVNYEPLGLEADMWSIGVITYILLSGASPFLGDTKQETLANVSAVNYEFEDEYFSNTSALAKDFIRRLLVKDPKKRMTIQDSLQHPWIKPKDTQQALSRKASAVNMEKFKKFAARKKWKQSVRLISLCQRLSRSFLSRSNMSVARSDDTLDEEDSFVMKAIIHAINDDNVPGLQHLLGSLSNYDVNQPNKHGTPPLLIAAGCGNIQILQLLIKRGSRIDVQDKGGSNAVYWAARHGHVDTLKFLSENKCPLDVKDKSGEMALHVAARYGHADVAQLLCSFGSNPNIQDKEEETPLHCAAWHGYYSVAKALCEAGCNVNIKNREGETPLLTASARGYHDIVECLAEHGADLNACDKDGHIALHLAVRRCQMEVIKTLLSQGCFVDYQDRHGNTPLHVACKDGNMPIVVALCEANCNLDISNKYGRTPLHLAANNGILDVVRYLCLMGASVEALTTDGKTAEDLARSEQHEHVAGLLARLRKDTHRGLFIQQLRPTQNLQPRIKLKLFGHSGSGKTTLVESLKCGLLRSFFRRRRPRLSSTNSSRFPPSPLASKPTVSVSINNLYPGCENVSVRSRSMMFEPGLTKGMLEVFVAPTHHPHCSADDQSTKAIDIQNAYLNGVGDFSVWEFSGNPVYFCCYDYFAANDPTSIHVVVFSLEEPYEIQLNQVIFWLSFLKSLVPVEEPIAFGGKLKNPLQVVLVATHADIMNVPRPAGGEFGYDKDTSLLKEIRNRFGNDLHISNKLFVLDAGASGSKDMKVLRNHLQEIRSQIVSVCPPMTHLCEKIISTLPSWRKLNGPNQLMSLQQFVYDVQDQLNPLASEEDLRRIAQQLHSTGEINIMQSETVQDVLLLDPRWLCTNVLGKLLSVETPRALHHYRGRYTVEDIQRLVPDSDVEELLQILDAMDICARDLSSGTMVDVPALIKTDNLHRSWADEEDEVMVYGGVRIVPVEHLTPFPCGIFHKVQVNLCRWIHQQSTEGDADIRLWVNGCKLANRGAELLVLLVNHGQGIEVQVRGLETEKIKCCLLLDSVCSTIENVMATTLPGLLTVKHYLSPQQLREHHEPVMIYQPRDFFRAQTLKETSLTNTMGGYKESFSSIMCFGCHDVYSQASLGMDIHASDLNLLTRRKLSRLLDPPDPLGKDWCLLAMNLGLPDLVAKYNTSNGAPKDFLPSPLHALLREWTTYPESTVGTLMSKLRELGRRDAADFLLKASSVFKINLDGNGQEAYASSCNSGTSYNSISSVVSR

[7] = target: Misshapen-like kinase 1 (Homo sapiens, UniProt Q8N4C8); test: Selectivity interaction (Kinase screening (Nanosyn)) EUB0000604a MINK1
[8] = target: Serine/threonine-protein kinase Chk2 (Homo sapiens) (UniProt O96017); test: Selectivity interaction (KinomeScan (DiscoverX)) EUB0000655a CHEK2; conditions: at 10 µM
Sequence of Serine/threonine-protein kinase Chk2 (Homo sapiens) (O96017 whole entry): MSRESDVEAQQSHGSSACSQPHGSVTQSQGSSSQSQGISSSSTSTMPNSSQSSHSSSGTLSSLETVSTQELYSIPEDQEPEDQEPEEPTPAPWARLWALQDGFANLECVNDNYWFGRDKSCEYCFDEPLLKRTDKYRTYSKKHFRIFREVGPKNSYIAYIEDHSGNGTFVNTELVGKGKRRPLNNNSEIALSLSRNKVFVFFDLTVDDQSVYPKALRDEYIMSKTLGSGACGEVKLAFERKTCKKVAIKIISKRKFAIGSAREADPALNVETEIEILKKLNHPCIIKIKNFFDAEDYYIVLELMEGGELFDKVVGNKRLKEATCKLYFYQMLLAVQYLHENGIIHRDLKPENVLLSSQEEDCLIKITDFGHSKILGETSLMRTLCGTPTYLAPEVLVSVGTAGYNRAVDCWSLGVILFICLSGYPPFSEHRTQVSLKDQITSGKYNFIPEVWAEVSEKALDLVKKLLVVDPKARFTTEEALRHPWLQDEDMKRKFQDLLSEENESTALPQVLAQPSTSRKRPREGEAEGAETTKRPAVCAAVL

[9] = target: Calcium/calmodulin-dependent protein kinase type 1B (Homo sapiens) (UniProt Q6P2M8); test: Selectivity interaction (KinomeScan (DiscoverX)) EUB0001079a PNCK; conditions: at 1 µM
Sequence of Calcium/calmodulin-dependent protein kinase type 1B (Homo sapiens) (Q6P2M8 whole entry): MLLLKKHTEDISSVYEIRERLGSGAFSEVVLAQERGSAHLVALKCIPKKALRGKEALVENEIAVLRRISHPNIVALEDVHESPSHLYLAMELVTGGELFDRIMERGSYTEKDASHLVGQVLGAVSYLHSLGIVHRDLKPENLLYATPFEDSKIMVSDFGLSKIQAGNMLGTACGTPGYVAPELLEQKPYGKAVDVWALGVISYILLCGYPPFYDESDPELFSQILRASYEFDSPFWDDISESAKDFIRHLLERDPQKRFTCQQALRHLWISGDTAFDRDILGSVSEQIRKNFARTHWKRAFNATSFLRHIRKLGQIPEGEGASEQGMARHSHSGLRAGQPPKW

[10] = target: Bromodomain testis-specific protein (Homo sapiens) (UniProt Q58F21); test: Selectivity interaction (Bromodomain panel (DSF asssay)) EUB0000270b BRDT

Sequence of Phosphatidylinositol 4-kinase type 2-beta (Homo sapiens) (Q8TCG2 whole entry): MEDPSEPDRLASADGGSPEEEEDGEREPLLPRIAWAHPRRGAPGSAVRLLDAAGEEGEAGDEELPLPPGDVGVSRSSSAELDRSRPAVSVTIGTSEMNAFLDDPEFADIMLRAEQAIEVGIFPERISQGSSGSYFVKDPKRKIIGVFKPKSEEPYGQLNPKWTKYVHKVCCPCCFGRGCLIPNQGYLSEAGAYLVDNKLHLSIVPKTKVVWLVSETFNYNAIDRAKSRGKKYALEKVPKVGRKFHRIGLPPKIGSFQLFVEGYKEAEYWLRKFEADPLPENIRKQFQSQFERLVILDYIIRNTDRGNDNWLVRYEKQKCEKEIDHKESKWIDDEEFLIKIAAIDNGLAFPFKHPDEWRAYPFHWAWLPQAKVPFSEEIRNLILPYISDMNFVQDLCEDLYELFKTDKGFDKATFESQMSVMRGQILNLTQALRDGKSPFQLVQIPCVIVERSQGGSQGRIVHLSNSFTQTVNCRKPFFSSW
Sequence of Bromodomain-containing protein 3 (Homo sapiens) (Q15059 2-726 limits assumed): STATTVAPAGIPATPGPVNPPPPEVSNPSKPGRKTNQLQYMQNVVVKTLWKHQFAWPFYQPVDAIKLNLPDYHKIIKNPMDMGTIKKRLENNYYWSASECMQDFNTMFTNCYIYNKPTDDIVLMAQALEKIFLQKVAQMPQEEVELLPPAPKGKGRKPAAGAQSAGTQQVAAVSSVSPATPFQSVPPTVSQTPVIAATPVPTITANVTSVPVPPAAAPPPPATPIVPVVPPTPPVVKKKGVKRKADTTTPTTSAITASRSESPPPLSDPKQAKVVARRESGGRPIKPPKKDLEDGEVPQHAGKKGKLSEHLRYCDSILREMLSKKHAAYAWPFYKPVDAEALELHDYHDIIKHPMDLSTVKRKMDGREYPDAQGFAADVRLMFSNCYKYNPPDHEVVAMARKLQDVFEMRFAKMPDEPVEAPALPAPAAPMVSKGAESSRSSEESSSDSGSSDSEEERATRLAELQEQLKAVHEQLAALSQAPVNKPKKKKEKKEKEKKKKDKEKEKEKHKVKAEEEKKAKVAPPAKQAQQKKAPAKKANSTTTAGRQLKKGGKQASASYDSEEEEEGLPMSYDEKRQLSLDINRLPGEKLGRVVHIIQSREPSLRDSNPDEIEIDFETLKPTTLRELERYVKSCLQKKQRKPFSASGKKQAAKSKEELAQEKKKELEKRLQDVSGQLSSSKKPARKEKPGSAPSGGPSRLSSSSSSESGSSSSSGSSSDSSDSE

In the case of Cn1cc(-n2cnc3c(NCc4nc5cc(Cl)c(Cl)cc5[nH]4)nc(N4CCOCC4)nc32)cn1, the % of inhibition [1] is reported as -1.89%.
With CN(C)CCCOc1ccc(-c2cc(NCCCn3cccn3)nc(S(C)(=O)=O)n2)cc1 the dTM [2] was < 2 K.
With CCC(=O)N1CC[C@H](Nc2ncnc3c2CN(c2cnc(OC)c(C(F)(F)F)c2)CC3)C1 [LENIOLISIB] the IC50 [3] was > 30 µM.
For CC[C@@H]1[C@H](F)C(=O)N[C@@H]1COc1nccc2cc(C(N)=O)c(OC)cc12 [ZIMLOVISERTIB], the % of inhibition ([4]; at 0.01 µM) was -1.5%, the % of inhibition ([4]; at 0.04 µM) was -1.9% and the % of inhibition ([4]; at 0.2 µM) was -4.2%. For the same molecule, the % of inhibition ([4]; at 1 µM) was 17.9% and the % of inhibition ([4]; at 5 µM) was 22.6%.
C=CC(=O)Nc1cccc(C(=O)Nc2ccc(Nc3cc(-c4[nH]c(SC)nc4C)ccn3)cc2)c1 was tested, and the % of control ([5]; at 1 µM) was 100% and the % of control ([5]; at 5 µM) was 86%.
In the case of COCC(=O)NC/C=C/c1ccc2ncnc(Nc3ccc(Oc4ccc(C)nc4)c(C)c3)c2c1 [CP-724714], the % of control [6] is reported as 76%.
Cc1cnc(Nc2ccc(F)cc2Cl)nc1-c1c[nH]c(C(=O)N[C@H](CO)c2cccc(Cl)c2)c1 gave a % of inhibition [7] of 18%.
CN(C)CCOc1ccc(-c2nc(-c3ccncc3)c(-c3ccc4c(c3)CC/C4=N\O)[nH]2)cc1 showed a % of control [8] of 100%.
Nc1cnc(N2CCc3cc(S(=O)(=O)Nc4c(F)cc(Cl)cc4F)cc(N4CCCC4=O)c32)nc1 [TP-020n] was tested, and the % of control [9] was 67%.
Cc1cc(CN)cc(C)c1-c1ncn(C)c1-c1cncn1C showed a dTM [10] of -1.8 K.
